Data from US12590954B2, “Neural stem cell-induced differential medium and induction differentiation method” (IREGENE THERAPEUTICS, CO., LTD., priority 2020, dated 2026).
Entries after “also recorded” stand apart in the source; their conditions may differ.

Key:
[1] = system: Human pluripotent stem cells; test: CyQuant quantitative detection of cell viability during induction; type: cell-based
Method: The Cyquant assay was used to perform the quantitative detection of cell viability, thus investigating the effect of LY2157299 on the physiological state of the cells during long-term culture of the cells; Among them, the LSB method was used as the control group. 96-well light-tight cell culture plates were coated; after the coating was complete, cells were seeded separately at 5×10^4 cell number per well and three sets of parallel replicates were set (the average of three sets was calculated as data) to repeat the procedure of example 2.1. Wherein, the culture procedures described previously were incubated at 37° C. with 5% CO2. Samples were taken on days 1, 5, 10, 15 and 20 for cell viability assay using CyQuant Kit (Invitrogen, cat. No: X12223). The aforementioned assay was operated according to the instructions with a Spectramax i3 Multi-Mode Microplate Reader (VWR, model number: ID3-STD) for data reading.

HLA-DR = test: Flow cytometry detection of HLA-DR antigens of induced neural stem cells; type: cell-based, human
Method: The HLA-DR antigens of neural stem cells induced by LY2157299 were detected by flow cytometry. HLA-DR is an MHC class II molecule whose expression is critical for the antigen-presenting function of cells and plays a key role in adoptive immune responses. The induced neural stem cells obtained in Example 2 were digested with EDTA, washed with DPBS, centrifuged to remove the supernatant, and 10^6 Cells were resuspended in 100 μL of diluted primary antibody (CD45 PerCP, Abeam, Cat. No. ab157309; HLA-DR FITC, CST, Cat. No. 54126), incubated on ice for 1 hour in the dark, centrifuged to remove supernatant, and cells were resuspended in 500 μL of antibody dilution buffer (CST) and analyzed on a flow cytometer. Samples incubated without primary antibody were used as controls. The results are shown in FIG. 7, FIG. 7a is a negative control, FIG. 7b is the HLA-DR detection result of the neural stem cells obtained by LY2157299 induction.

[2] = system: major histocompatibility complex (MHC) genes; test: Q-PCR detection of MHC genes of induced neural stem cells; type: cell-based; conditions: compared with human pluripotent stem cells
Description: The major histocompatibility complex (MHC) genes of neural stem cells induced by LY2157299 was detected by Q-PCR method, and pluripotent stem cells (iPS) were used as control.

[3] = system: human induced pluripotent stem cells; test: Brain organoid formation and diameter; type: cell-based; conditions: 12.5 μM LY2157299
Method: Organoid culture was performed with human induced pluripotent stem cells. Organoid inducing medium was formulated as follows: NouvNeu basal medium supplemented with 12.5 μM […]. Induced pluripotent stem cells were digested to single cells by Accutase, seeded in 15-bottom-ultra-low attachment 96-well plates at a ratio of 9000 cells/[…] of brain organoid inducing medium per well. 10 μM ROCK inhibitor Y-27632 (Selleck, 51049) was added, and the cells were placed in a 37° C., 5% carbon dioxide cell incubator for 24 hours (Panasonic, model: MCO-18AC). Y-27632-free fresh organoid inducing medium was changed the following day until day 10. Day 10 the organoids were transferred to ultra-low-attachment 6-well plates and the medium was changed to NouvNeu001 basal medium supplemented with 2% B27 cell culture additive. The culture was conducted at 37° C. in a 5% CO2 cell culture incubator on a horizontal rotator at 80 rpm until day 120.
The control experiment was carried out according to the published method (Clair B et. al, Nat Methods. 2019, November; 16 (11): 1169-1175). N2B27 was used as the basic medium for organ like culture. […]
Organoids were photographed by Leica Dmi8. The brain organoids were photographed and their diameters were measured. […]

[4] = system: Human pluripotent stem cells; test: Chemical induction of neural stem cells (neural rosette formation, cell morphology); type: cell-based
Description: Human pluripotent stem cells include embryonic pluripotent stem cells, such as the H19 cell line and human induced pluripotent stem cells. Wherein, the human induced pluripotent stem cells used in the present invention are obtained from the reprogramming of CD34^+ cells, which refers to “reprogramming culture medium and reprogramming induced pluripotent stem cell culture method” (the method in the patent ZL201910050800.7).
Human pluripotent stem cells are used to coat T25 cell culture flasks with Matrigel ([…] Technologies), and then placed in a 37° C. incubator for more than one hour after plating. Follow 1×10^6 Cells were seeded in T25 flasks for expansion and passage.
For neural induction, use 50 μg/mL poly-lysine (SIGMA, Cat. No.: P6407) to coat a 6-well culture plate, and incubate at 37° C. for more than 3 hours after plating; then use 5 μg/mL Laminin (SIGMA ALDRICH, Cat. No.: 12020) for further coat, and then place in a 37° C. incubator to incubate for more than 3 hours. When pluripotent stem cells reached 70% coverage, they were digested with EDTA at 37° C. for 5 min, and DMEM was used to stop cell digestion. Cells are washed and centrifuged at 2×10^5 the proportions of each flask and are re-seeded in T25 plates. Neural induction is performed using the medium of the present invention in combination with the neural inducing compound, and the medium is changed every day until the neural stem cell rosette is formed. […] Therefore, the single-molecule inducing method provided by this method can induce pluripotent stem cells to form neural rosette structures more efficiently and uniformly.
(§1) From the above results, it is known that the differentiation is not complete under the low concentration condition, and many different types of cells can be seen. However, neural stem cells obtained in high concentration condition are easily differentiated and cell stress appears.

neural stem cells [5] = test: Directed differentiation of induced neural stem cells into neurons (immunofluorescence); type: cell-based, human
Method: The neural stem cells obtained by the LY inducing method in Example 2 were subjected to directed differentiation in NouvNeu001 basal medium. For neuronal differentiation, use 50 μg/mL polylysine (SIGMA ALDRICH, Cat. No.: P6407) to coat a 6-well culture plate, and place the plate in a 37° C. incubator and incubate for more than 3 hours until cells are seeded.
The neural stem cells obtained in example 2 were seeded at a density of 1×10^5 the ratio per flask was inoculated in T25 flasks, and 3 μM CHIR99021 (Selleck, Cat. No.: S2924), 10 μM SU5402 (Tocris, Cat. No.: 3300/1), 10 μM DAPT (Selleck, Cat. No.: 52215) were added to NouvNeu001 basal medium. Fresh medium was replaced every 3 days until day 21. The above cultures were incubated at 37° C. with 5% CO2.
The neural stem cells obtained in example 2 were seeded at a density of 1×10^5 the ratio per flask was inoculated in T25 flasks, and 1 μM Purmorphamine Sellek, Cat. No.: S3042) and […] TGF-β3 (Novoprotein, Cat. No.: CJ44) were added to NouvNeu001 basal medium to culture neural stem cells. Fresh medium was replaced every 3 days until day 30. The above cultures were incubated at 37° C. with 5% CO2.
The neural stem cells obtained in example 2 were seeded at a density of 1×10^5 the ratio per flask was inoculated in T25 flasks, and 0.5 μM retinyl acetate (SIGMA ALDRICH, Cat. No.: R7782) was added to NouvNeu001 basal medium. Fresh medium was replaced every 3 days until day 21. The above cultures were incubated at 37° C. with 5% CO2.
After induction and differentiation, the cells were harvested and identified by immunofluorescence staining: cells were fixed with 4% paraformaldehyde at room temperature for 40 minutes, washed twice with DPBS buffer; then permeabilized with 0.1% Triton X-100 for 5 minutes, and buffered with DPBS The cells were then washed twice with DPBS buffer containing 10% horse serum and 0.1% Triton X-100 at 4° C. overnight; the cells were washed with DPBS buffer and then washed with 2% horse serum and 0:1% Triton X-100. […]

neural stem cells [6] = test: Q-PCR of marker genes during induction from pluripotent stem cells to neural stem cells; type: cell-based, human; conditions: different concentrations of LY2157299
Method: Transcriptional changes of different marker genes during induction from pluripotent stem cells to neural stem cells were detected by using Q-PCR. The induced pluripotent stem cells used in this example are neural stem cells derived by LY inducing method and LSB inducing method, respectively. Neural stem cells were prepared as described previously using Rneasy Mini or Micro Kit (QIAGEN) for total RNA extraction, in which […] RNA was used to synthesize cDNA with superscript III First-Strand Synthesis System (Invitrogen).
SYBR Premix Ex Taq (TaKaRa) and Thermal Cycler Dice Real Time System TaKaRa) were used to perform labeling and reactions for Quantitative PCR, with beta-Actin as internal reference. All the above data were analyzed with the delta-Ct method. Each set of trials was tested using three sets of replicates, and variance statistics were performed.
as §1

[7] = Freezing point osmometer: osmolality of the culture system; type: physicochemical
Method: A fully automated freezing point osmometer (FM-8P, Shanghai Yida Instruments Co., Ltd.) was used to detect the effects of different concentrations of sodium chloride on the osmolality of the culture system, and the specific operations were enrolled in the product instructions (FM-8P, Shanghai Vida Instruments Co., Ltd.). The test results are detailed in FIG. 2a. […] However, when the concentration reached […], the osmolality of the culture system already exceeded the cell culture limit of 320 mOsm/kg.

Cc1cccc(-c2nn3c(c2-c2ccnc4ccc(C(N)=O)cc24)CCC3)n1 [LY2157299, 4-(2-(6-methylpyridin-2-yl)-5,6-dihydro-4h-pyrrolo[1,2-b]pyrazol-3-yl) quinoline-6-carboxamide]
number of neural cells induced (CyQuant) ([1]; samples on days 1, 5, 10, 15 and 20, LSB method as control): more number of neural cells compared with LSB method
HLA-DR antigen expression of induced neural stem cells (HLA-DR): do not express HLA-DR; also recorded: negative
expression of MHC associated genes in induced neural stem cells [2]: significantly lower than human induced pluripotent stem cells; also recorded: extremely low levels
generation of cerebral organoids [3]: can induce the generation of cerebral organoids
cell population obtained by chemical induction ([4]; 12.5 μM LY2157299): a uniform cell population
cell population obtained by chemical induction ([4]; 25 μM LY2157299): a mixed population of neural cells was obtained
cell stress on chemical induction ([4]; 25 μM LY2157299): cells showed signs of stress with intracellular vacuoles
cell population obtained by chemical induction ([4]; 20 nm LY2157299): a mixed population of cells including neural cells was obtained
nociceptor neuron differentiation of induced neural stem cells: marker expression (neural stem cells [5]; CHIR99021, SU5402, DAPT in NouvNeu001 until day 21): able to express the nociceptor neuronal markers SCN11A and Nestin
dopaminergic neuron differentiation of induced neural stem cells: marker expression (neural stem cells [5]; Purmorphamine and TGF-β3 in NouvNeu001 until day 30): could express the mature dopaminergic neuron specific markers Tyrosine Hydroxylase (TH) and Pitx3
photoreceptor neuron differentiation of induced neural stem cells: marker expression (neural stem cells [5]; retinyl acetate in NouvNeu001 until day 21): could express the photoreceptor neuronal markers OPSIN and CRX
Pax6 expression versus concentration (Q-PCR) (neural stem cells [6]): positively correlated with Pax6 expression
apoptosis gene CASP3 versus concentration (Q-PCR) (neural stem cells [6]): positively correlated with apoptosis

recombinant insulin: component of the basal medium
rate of cell proliferation versus concentration (CyQuant) ([1]; different concentrations, long-term culture): positively correlated with the rate of cell proliferation

[Cl-].[Na+] [sodium chloride]
osmotic pressure of the culture system versus concentration ([7]; different concentrations of sodium chloride): linear increase
osmolality of the culture system ([7]; sodium chloride concentration 1 μg/mL): > 320 mOsm/kg
